In patent US6737383B1, “Herbicidal oxadiazolidines” (priority 1999, dated 2004):

Columns and labels:
smallflower flatsedge = assay: Test B flood test smallflower flatsedge; type: in vivo, Cyperus difformis
Outline: (§1)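 Plants were grown to the 2-leaf stage before treatment with test chemical, then held in a greenhouse for twelve to sixteen days. Injury was visually rated against untreated controls on a 0–10 scale, where 0 is no effect and 10 is complete control.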

rice = assay: Test B flood test rice; type: in vivo, Oryza sativa
Outline: as §1

corn = assay: Test B pre/postemergence corn; type: in vivo, Zea mays
Outline: (§2)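 Herbicidal effect was estimated by eye on a ten-point control scale after plants spent twelve to sixteen days in a greenhouse following soil or foliar treatment. Foliar sprays targeted plants at one to four leaves; all doses were formulated in a non-phytotoxic solvent with surfactant.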

pigweed = assay: Test B pre/postemergence pigweed; type: in vivo, Amaranthus retroflexus
Outline: as §2

cocklebur = assay: Test B pre/postemergence cocklebur; type: in vivo, Xanthium strumarium
Outline: as §2

surinam grass = assay: Test B pre/postemergence surinam grass; type: in vivo, Brachiaria decumbens
Outline: as §2

sugar beet = assay: Test B pre/postemergence sugar beet; type: in vivo, Beta vulgaris
Outline: as §2

wild oat = assay: Test B pre/postemergence wild oat; type: in vivo, Avena fatua
Outline: as §2

rape = assay: Test B pre/postemergence rape; type: in vivo, Brassica napus
Outline: as §2

bedstraw = assay: Test B pre/postemergence bedstraw; type: in vivo, Galium aparine
Outline: as §2

morningglory = assay: Test B pre/postemergence morningglory; type: in vivo, Ipomoea hederacea
Outline: as §2

purple nutsedge = assay: Test B pre/postemergence purple nutsedge; type: in vivo, Cyperus rotundus
Outline: as §2

soybean = assay: Test B pre/postemergence soybean; type: in vivo, Glycine max
Outline: as §2

bamyardgrass = assay: Test B flood test barnyardgrass; type: in vivo, Echinochloa crus-galli
Outline: as §1

velvetleaf = assay: Test B pre/postemergence velvetleaf; type: in vivo, Abutilon theophrasti
Outline: as §2

blackgrass = assay: Test B pre/postemergence blackgrass; type: in vivo, Alopecurus myosuroides
Outline: as §2

[1] = Postemergence, Rate 62 g/ha, scale 0 to 10, 0 is no effect, 10 is complete control
[2] = Rate 125 g/ha, Postemergence section (flood test species), scale 0 to 10, 0 no effect, 10 complete control
[3] = flood test, listed under Postemergence, Rate 250 g/ha, scale 0 to 10, 0 no effect, 10 complete control
[4] = Rate 500 g/ha, Postemergence section of Table B, 0 to 10 scale (0 no effect, 10 complete control)
[5] = Postemergence, Rate 250 g/ha, scale 0 to 10, 0 no effect, 10 complete control
[6] = Preemergence, Rate 62 g/ha, scale 0 to 10, 0 is no effect, 10 is complete control
[7] = Preemergence, Rate 125 g/ha, scale 0 to 10 (0 no effect, 10 complete control)
[8] = Preemergence, Rate 250 g/ha, scale of 0 to 10 where 0 is no effect and 10 is complete control
[9] = Preemergence, Rate 500 g/ha, scale 0 (no effect) to 10 (complete control)
[10] = Rate 125 g/ha, Postemergence, scale 0 to 10, 0 no effect, 10 complete control
[11] = Rate 500 g/ha, Postemergence, 0 to 10 scale (0 no effect, 10 complete control)

Cc1ccccc1-n1c(=O)on(C(=O)N(c2ccc(F)cc2F)C(C)C)c1=O [Compound 25]
S. Flatsedge plant response rating (smallflower flatsedge; [1]): 0 | S. Flatsedge plant response rating (smallflower flatsedge; [2]): 0 | S. Flatsedge plant response rating (smallflower flatsedge; [3]): 0 | Rice plant response rating (rice; [1]): 0 | Rice plant response rating (rice; [2]): 0 | Rice plant response rating (rice; [4]): 3 | Rice plant response rating (rice; [3]): 0 | Corn plant response rating (corn; [1]): 0 | Corn plant response rating (corn; [5]): 0 | Plant response rating, Corn (corn; [6]): 0 | Plant response rating, Corn (corn; [7]): 0 | Plant response rating, Corn (corn; [8]): 0 | Corn plant response rating (corn; [9]): 0 | Corn plant response rating (corn; [10]): 0 | Corn plant response rating (corn; [11]): 0 | Redroot pigweed plant response rating (pigweed; [1]): 0 | Redroot pigweed plant response rating (pigweed; [5]): 0 | Plant response rating, Redroot pigweed (pigweed; [6]): 0 | Plant response rating, Redroot pigweed (pigweed; [7]): 0 | Plant response rating, Redroot pigweed (pigweed; [8]): 8 | Redroot pigweed plant response rating (pigweed; [9]): 8 | Redroot pigweed plant response rating (pigweed; [10]): 0 | Redroot pigweed plant response rating (pigweed; [11]): 4 | Cocklebur plant response rating (cocklebur; [1]): 0 | Cocklebur plant response rating (cocklebur; [5]): 2 | Plant response rating, Cocklebur (cocklebur; [6]): 0 | Plant response rating, Cocklebur (cocklebur; [7]): 0 | Plant response rating, Cocklebur (cocklebur; [8]): 0 | Cocklebur plant response rating (cocklebur; [9]): 0 | Cocklebur plant response rating (cocklebur; [10]): 2 | Cocklebur plant response rating (cocklebur; [11]): 5 | B. signalgrass plant response rating (surinam grass; [1]): 0 | B. signalgrass plant response rating (surinam grass; [5]): 0 | Plant response rating, B. signalgrass (surinam grass; [6]): 0 | Plant response rating, B. signalgrass (surinam grass; [7]): 0 | Plant response rating, B. signalgrass (surinam grass; [8]): 7 | B. signalgrass plant response rating (surinam grass; [9]): 7 | B. signalgrass plant response rating (surinam grass; [10]): 0 | B. signalgrass plant response rating (surinam grass; [11]): 2 | Sugarbeets plant response rating (sugar beet; [1]): 0 | Sugarbeets plant response rating (sugar beet; [5]): 0 | Plant response rating, Sugarbeets (sugar beet; [6]): 0 | Plant response rating, Sugarbeets (sugar beet; [7]): 0 | Plant response rating, Sugarbeets (sugar beet; [8]): 0 | Sugarbeets plant response rating (sugar beet; [9]): 2 | Sugarbeets plant response rating (sugar beet; [10]): 0 | Wild oats plant response rating (wild oat; [1]): 0 | Wild oats plant response rating (wild oat; [5]): 1 | Plant response rating, Wild oats (wild oat; [7]): 2 | Plant response rating, Wild oats (wild oat; [8]): 6 | Wild oats plant response rating (wild oat; [9]): 7 | Wild oats plant response rating (wild oat; [10]): 0 | Rape plant response rating (rape; [1]): 0 | Rape plant response rating (rape; [5]): 0 | Plant response rating, Rape (rape; [6]): 0 | Plant response rating, Rape (rape; [7]): 0 | Plant response rating, Rape (rape; [8]): 0 | Rape plant response rating (rape; [9]): 0 | Rape plant response rating (rape; [10]): 0 | Rape plant response rating (rape; [11]): 0 | Bedstraw plant response rating (bedstraw; [1]): 4 | Bedstraw plant response rating (bedstraw; [5]): 7 | Plant response rating, Bedstraw (bedstraw; [6]): 0 | Plant response rating, Bedstraw (bedstraw; [7]): 0 | Plant response rating, Bedstraw (bedstraw; [8]): 0 | Bedstraw plant response rating (bedstraw; [9]): 3 | Bedstraw plant response rating (bedstraw; [10]): 4 | Bedstraw plant response rating (bedstraw; [11]): 7 | Morningglory plant response rating (morningglory; [1]): 1 | Morningglory plant response rating (morningglory; [5]): 2 | Plant response rating, Morningglory (morningglory; [6]): 0 | Plant response rating, Morningglory (morningglory; [7]): 0 | Plant response rating, Morningglory (morningglory; [8]): 0 | Morningglory plant response rating (morningglory; [9]): 0 | Morningglory plant response rating (morningglory; [10]): 1 | Morningglory plant response rating (morningglory; [11]): 2 | Nutsedge plant response rating (purple nutsedge; [1]): 0 | Nutsedge plant response rating (purple nutsedge; [5]): 0 | Plant response rating, Nutsedge (purple nutsedge; [6]): 0 | Plant response rating, Nutsedge (purple nutsedge; [7]): 0 | Plant response rating, Nutsedge (purple nutsedge; [8]): 0 | Nutsedge plant response rating (purple nutsedge; [9]): 0 | Nutsedge plant response rating (purple nutsedge; [10]): 0 | Soybean plant response rating (soybean; [1]): 2 | Soybean plant response rating (soybean; [5]): 3 | Plant response rating, Soybean (soybean; [6]): 0 | Plant response rating, Soybean (soybean; [7]): 0 | Plant response rating, Soybean (soybean; [8]): 0 | Soybean plant response rating (soybean; [9]): 0 | Soybean plant response rating (soybean; [10]): 3 | Barnyardgrass plant response rating (bamyardgrass; [1]): 0 | Barnyardgrass plant response rating (bamyardgrass; [2]): 0 | Barnyardgrass plant response rating (bamyardgrass; [4]): 8 | Barnyardgrass plant response rating (bamyardgrass; [3]): 0 | Velvetleaf plant response rating (velvetleaf; [1]): 0 | Velvetleaf plant response rating (velvetleaf; [5]): 0 | Plant response rating, Velvetleaf (velvetleaf; [6]): 0 | Plant response rating, Velvetleaf (velvetleaf; [7]): 0 | Plant response rating, Velvetleaf (velvetleaf; [8]): 0 | Velvetleaf plant response rating (velvetleaf; [9]): 0 | Velvetleaf plant response rating (velvetleaf; [10]): 0 | Blackgrass plant response rating (blackgrass; [1]): 4 | Blackgrass plant response rating (blackgrass; [5]): 6 | Plant response rating, Blackgrass (blackgrass; [6]): 3 | Plant response rating, Blackgrass (blackgrass; [7]): 3 | Plant response rating, Blackgrass (blackgrass; [8]): 8 | Blackgrass plant response rating (blackgrass; [9]): 8 | Blackgrass plant response rating (blackgrass; [10]): 5 | Blackgrass plant response rating (blackgrass; [11]): 7
